Results taken from PMC4263610, “Derivation of ligands for the complement C3a receptor from the C-terminus of C5a” (European Journal of Pharmacology, 2014).
One block for each molecule: values may come before it. Ends that are not written are not given here.

Experiments:
C3a receptor = C3a receptor (Homo sapiens, UniProt Q16581); test: xCELLigence, antagonism of peptide-evoked response by C3a receptor antagonist SB 290157 in HMDM; type: cell-based; conditions: n=3–5
Description: (§1) HMDM were seeded overnight at 30,000 cells/well in 384-well E-Plates (Roche). Approximately 24 h later, HMDM media were exchanged for serum-free IMDM and equilibrated at 37 °C and 5% CO2 for 2 h prior to ligand addition. Ligands were prepared at a final DMSO concentration of 0.5% (or less) in serum-free IMDM. […] After agonist addition, measurements were taken continuously for ~1.5 h at 37 °C. The RTCA software was used for data analysis, with statistical analysis using GraphPad Prism 5.0c (GraphPAD Software Inc., San Diego, CA).

[1] = target: T1, human monocyte-derived macrophages (HMDM) (Homo sapiens, UniProt Q16581); test: xCELLigence cell impedance assay, agonist activity on HMDM; type: cell-based; conditions: for EC50: xCELLigence impedance, dose-response, serum-free IMDM, 37 °C, n=3–5; for response in initial single dose screen: single dose of 8 μM, n=4–6, hit = P<0.001; for xCELLigence response profile: C3a and C5a at 100 nM
T1 sequence (Q16581 1-482): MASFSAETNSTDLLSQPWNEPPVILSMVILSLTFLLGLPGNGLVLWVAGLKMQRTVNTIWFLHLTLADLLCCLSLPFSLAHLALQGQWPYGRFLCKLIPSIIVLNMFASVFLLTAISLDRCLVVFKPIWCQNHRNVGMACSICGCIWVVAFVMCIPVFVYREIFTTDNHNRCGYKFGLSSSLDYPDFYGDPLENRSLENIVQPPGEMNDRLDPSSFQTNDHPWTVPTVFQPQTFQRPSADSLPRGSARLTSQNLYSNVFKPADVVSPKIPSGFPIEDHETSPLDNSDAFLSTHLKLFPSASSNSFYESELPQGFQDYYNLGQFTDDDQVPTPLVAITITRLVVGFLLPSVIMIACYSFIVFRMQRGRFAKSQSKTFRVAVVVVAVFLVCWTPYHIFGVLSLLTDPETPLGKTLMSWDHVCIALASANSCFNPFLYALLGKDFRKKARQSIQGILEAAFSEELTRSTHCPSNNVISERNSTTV
Description: Human monocytes were isolated from blood donations to the Australian Red Cross Blood Service (Kelvin Grove, Queensland). The isolation of mononuclear cells was as described previously by [Halai and Cooper (2012)]. Briefly, the mononuclear cell layer was separated using density gradient centrifugation with Ficoll-Paque Plus (GE Healthcare). MACS magnetic beads (Miltenyi Biotec) were incubated with the cells for 15 min at 4 °C before passing through an LS column (Miltenyi Biotec) to select for the CD14+ cells. Selected monocytes were plated at a density of 1.5×10^7 in Iscove׳s Modified Dulbecco׳s Medium (IMDM) (Invitrogen Life Technologies) containing L-glutamine supplemented with 10% Fetal Bovine Serum (FBS), 50 IU/ml penicillin and 50 μg/ml streptomycin. Human macrophage colony-stimulating factor (M-CSF) (Peprotech) was added to media to allow cells to differentiate into human monocyte-derived macrophages (HMDM). Over the 7 day differentiation process, cells were incubated at 37 °C and 5% CO2.
as §1

human C3a receptor = target: T2, human C3a receptor (Homo sapiens, UniProt Q16581); test: RBL-2H3 degranulation assay (β-hexosaminidase), agonist, human C3a receptor; type: cell-based; conditions: RBL-2H3 transfected with human C3a receptor, 100 µM peptide (Fig. 3 legend: 50 μM), 15 min, β-hexosaminidase secretion, relative to FLPLAR
T2 construct: expressed in transfected cells; host or cells: RBL-2H3 (rat basophilic leukemia) cells
T2 sequence (Q16581 1-482): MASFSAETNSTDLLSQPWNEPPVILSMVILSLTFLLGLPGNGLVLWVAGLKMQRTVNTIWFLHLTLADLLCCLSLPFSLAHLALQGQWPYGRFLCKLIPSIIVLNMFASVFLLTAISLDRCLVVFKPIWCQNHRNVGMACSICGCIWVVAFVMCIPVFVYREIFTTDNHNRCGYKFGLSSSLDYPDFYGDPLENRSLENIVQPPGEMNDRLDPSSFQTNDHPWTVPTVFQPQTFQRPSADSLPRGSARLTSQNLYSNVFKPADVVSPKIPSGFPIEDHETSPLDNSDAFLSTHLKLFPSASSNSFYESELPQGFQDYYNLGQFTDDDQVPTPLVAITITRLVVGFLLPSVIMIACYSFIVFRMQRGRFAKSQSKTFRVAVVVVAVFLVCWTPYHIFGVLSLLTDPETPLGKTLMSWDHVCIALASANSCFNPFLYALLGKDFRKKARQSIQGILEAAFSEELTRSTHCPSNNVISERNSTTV
Description: RBL-2H3 cells transfected with either human C5a1 or human C3a receptor ([Cain and Monk, 2002]) were routinely cultured in Dulbecco׳s Modified Eagle׳s Medium, 10% (v/v) fetal calf serum, and 400 mg/l G-418 at 37 °C in 5% CO2. Degranulation was measured by assaying for β-hexosaminidase activity in the cell supernatant, as described previously ([Monk et al., 1994]). In agonist assays, degranulation was calculated as a percentage of maximal activity in response to 200 nM recombinant human C3a, human C5a ([Cain and Monk, 2002]), or 10 nM agonist hexapeptide, FLPLAR ([Scully et al., 2010]). […]
RBL-2H3 cells transfected with either human C5a1 or human C3a receptor ([Cain and Monk, 2002]) were used to confirm hits detected in HMDM, using degranulation as a read-out ([Monk et al., 1994]). In cells transfected with C5a1, very weak agonist activity was detected in two groups of peptides, although even at 100 µM (the maximal dose achievable in the presence of the DMSO, which has adverse effects >1%), the activation obtained was 5–10% of the maximum activation achieved by a high dose of C5a (Fig. 3, top panel). […]
Fig. 3 Agonist activity of peptides at human C5a1 and C3a receptors expressed in rat basophilic leukemia cells (RBL-2H3). […] Degranulation was measured as the secretion of β-hexosaminidase. […]

C5a receptors = conditions: ref Taylor and Fairlie, 2005; cited from earlier work
Source text: C3a receptor/C5a1 promiscuity is not unusual and has been previously observed for whole C3a and a synthetic peptide agonist ([Ames et al., 1996]) and a chimeric C5a with the C3a C-terminal pentapeptide ([Bautsch et al., 1992]). In fact, early efforts to create potent and selective antagonists of C5a1 led to only partial agonists ([Taylor and Fairlie, 2005]).

IC50 (C3a receptor; agonist peptide 20 at about its EC50, antagonist pre-incubated 1 h): 1.3 nM
IC50 (C3a receptor; agonist peptide 31 at about its EC50, antagonist pre-incubated 1 h): 67 nM
IC50 (C3a receptor; agonist peptide 47 at about its EC50, antagonist pre-incubated 1 h): 44 nM
IC50 (C3a receptor; agonist peptide 49 at about its EC50, antagonist pre-incubated 1 h): 15 nM
IC50 (C3a receptor; agonist peptide 54 at about its EC50, antagonist pre-incubated 1 h): 29 nM
Molecule: N=C(N)NCCC[C@H](NC(=O)COCC(c1ccccc1)c1ccccc1)C(=O)O [SB 290157]

Molecule: Ac-NNYNLWR-OH [Peptide 20, Ac-NNYNLWR]
EC50 [1]: 5800 nM
response in initial single dose screen ([1]; xCELLigence): significant hits

Molecule: Ac-RHYPLWR-OH [Peptide 31, Ac-RHYPLWR]
activation of C3a receptor (degranulation) (human C3a receptor): very strong activation
EC50 [1]: 1100 nM
response in initial single dose screen ([1]; xCELLigence): significant hits

Molecule: Ac-RLYPLWR-OH [Peptide 47, Ac-RLYPLWR]
EC50 [1]: 1200 nM
response in initial single dose screen ([1]; xCELLigence): significant hits

Molecule: Ac-RYPLWR-OH [Peptide 54, Ac-RYPLWR]
activation of C3a receptor (degranulation) (human C3a receptor): very strong activation
EC50 [1]: 3000 nM
response in initial single dose screen ([1]; xCELLigence): significant hits

Molecule: Ac-TIYRLWR [Peptide 49, Ac-TIYRLWR]
EC50 [1]: 17000 nM

response in initial single dose screen ([1]; xCELLigence): significant hits
Molecule: Ac-TLLRLWR [Peptide 48]
outcome of full dose range retest ([1]; xCELLigence, full dose range): a full dose response could not be obtained

Molecule: AcPhe[Lornithine-Pro-D-cyclohexylalanine-Trp-Arg] (sidechain bridge or staple) [PMX53, cyclic C5a1 antagonist]
receptor affinity (C5a receptors): low nanomolar range

xCELLigence response profile [1]: single peak profile
cell index (intensity of the signal) ([1]; xCELLigence): 1.98
time of signal peak after addition ([1]; xCELLigence): ~ 1 min
Molecule: C3a: complement fragment C3a, 77-residue protein, recombinant human [Peptide C3a]

xCELLigence response profile [1]: two-peak profile
cell index (intensity of the signal) ([1]; xCELLigence): 4.53
time of signal peak after addition ([1]; xCELLigence): ~ 4 min
B1: C5a: complement fragment C5a, 74-residue protein, human (protein, UniProt P01031 678-751, looked up)
C5a anaphylatoxin: TLQKKIEEIAAKYKHSVVKKCCYDGACVNNDETCEQRAARISLGPRCIKAFTECCVVASQLRANISHKDMQLGR
modifications: C5a anaphylatoxin
notes: complement fragment C5a, 74-residue protein, human
